The source made the active and inactive calls.
What was measured:
[1] = target: Ephrin type-A receptor 4 (Mus musculus, UniProt Q03137); assay: inhibitors of EphA4 binding to KYL peptide, primary screen, biochemical, colorimetric, mouse EphA4 (AID 689); type: functional
[2] = target: Prothrombin (Homo sapiens, UniProt P00734); assay: Thrombin 1536 HTS Dose Response Confirmation. [Related pubchem assays: 1046 (Thrombin 1536 HTS; hits were confirmed in this assay)]; type: functional
[3] = target: T1, Trace amine-associated receptor 1 (Homo sapiens, UniProt Q96RJ0); assay: Counterscreen for agonists of the human trace amine associated receptor 1 (hTAAR1): Fluorescence-based cell-based high throughput dose response assay to identify hTAAR1 agonist that also desensitize TAAR1 receptor response.; type: functional
T1 sequence (Q96RJ0 whole entry): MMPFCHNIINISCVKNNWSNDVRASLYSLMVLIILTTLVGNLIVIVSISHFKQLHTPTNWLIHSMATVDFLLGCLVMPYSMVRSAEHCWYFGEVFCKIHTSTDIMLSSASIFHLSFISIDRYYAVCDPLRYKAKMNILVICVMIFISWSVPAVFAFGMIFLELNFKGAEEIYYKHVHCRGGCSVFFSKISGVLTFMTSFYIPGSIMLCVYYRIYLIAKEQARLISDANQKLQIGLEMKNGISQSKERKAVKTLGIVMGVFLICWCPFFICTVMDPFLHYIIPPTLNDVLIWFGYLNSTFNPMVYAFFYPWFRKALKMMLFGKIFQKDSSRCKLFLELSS

[4] = cells; type: functional, cell-based
[5] = cells; type: functional, cell-based; remark: listed apart in the source
[6] = target: T1, Trace amine-associated receptor 1; assay: Fluorescence-based cell-based high throughput dose response assay to identify agonists of the human trace amine associated receptor 1 (TAAR1).; type: functional
[7] = Counterscreen for inhibitors of Trypanosoma brucei methionyl tRNA synthetase (MetRS): Luminescence-based cell-based high throughput dose response assay to identify compounds that are cytotoxic to Jurkat human T lymphocyte cells.; type: functional
[8] = target: T2, Methionyl-tRNA synthetase, putative (Trypanosoma brucei brucei, UniProt Q38C91); type: functional, Trypanosoma brucei brucei strain 927/4 GUTat10.1;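 further: Read-out by fluorescence polarization, run as a confirmatory high-throughput counterscreen; potency of MetRS inhibitors measured by reduced AMP formation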
T2 sequence (Q38C91 whole entry): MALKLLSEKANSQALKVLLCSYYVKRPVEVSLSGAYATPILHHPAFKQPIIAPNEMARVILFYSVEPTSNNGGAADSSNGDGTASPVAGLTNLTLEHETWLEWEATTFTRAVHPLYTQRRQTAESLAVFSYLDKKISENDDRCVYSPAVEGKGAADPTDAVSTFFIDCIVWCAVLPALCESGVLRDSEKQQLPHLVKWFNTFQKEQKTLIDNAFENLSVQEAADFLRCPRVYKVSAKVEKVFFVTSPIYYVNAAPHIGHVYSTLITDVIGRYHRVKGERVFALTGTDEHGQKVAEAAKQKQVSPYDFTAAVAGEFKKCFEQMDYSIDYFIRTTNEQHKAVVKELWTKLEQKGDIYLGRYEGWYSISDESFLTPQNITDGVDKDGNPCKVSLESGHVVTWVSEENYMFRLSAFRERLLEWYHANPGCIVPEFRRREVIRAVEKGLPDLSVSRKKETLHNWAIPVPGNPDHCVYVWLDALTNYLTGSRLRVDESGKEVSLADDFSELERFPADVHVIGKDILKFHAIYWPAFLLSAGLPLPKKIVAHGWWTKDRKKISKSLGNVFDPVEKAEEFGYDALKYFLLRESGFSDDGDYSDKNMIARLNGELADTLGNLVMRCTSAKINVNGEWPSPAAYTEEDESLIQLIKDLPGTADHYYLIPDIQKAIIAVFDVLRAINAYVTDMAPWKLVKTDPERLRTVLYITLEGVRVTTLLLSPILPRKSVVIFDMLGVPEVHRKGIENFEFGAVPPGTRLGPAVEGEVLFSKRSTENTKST

[9] = CEM21 lymphoblast cell cytotoxicity, dose response, cytotoxicity control for viral fusion inhibitor project, CellTiter-Glo luminescence, cherry-picked (AID 652042); type: functional, cell-based;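 further: potency for signal decrease meaning cytotoxicity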
[10] = ZM109 Env clade C HIV-1 fusion inhibitors, dose response, HeLa effector, CEM target cells, luciferase, cherry-pick (AID 652058); type: functional, cell-based
[11] = inhibitors of clade B AD8 Env fusion, dose response, cell-based, cherry-pick (AID 652062); type: functional;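 further: luciferase signal from cell-cell fusion driven by HIV-1 clade B AD8 Env; potency is for inhibitors of fusion seen as a drop in luminescence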
[12] = inhibitors of HIV Env-driven cell fusion, dose response, cherry-pick (AID 652057); type: functional, cell-based
[13] = off-target signal loss in HeLa-CEM21 co-culture – HeLa F-luc CTL cells, cherry-picked, counter-screen for HIV-1 Env fusion inhibitor project, dose response (AID 652040); type: functional, cell-based;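 further: potency for signal decrease marking cytotoxic or nonspecific inhibition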
[14] = target: T3, Long-chain-fatty-acid--AMP ligase FadD28 (Mycobacterium tuberculosis, UniProt P9WQ59); assay: Fluorescence polarization aasay to screen for inhibitors that compete for the binding of FadD28 to a bisubstrate Measured in Biochemical System Using Plate Reader - 2147-01_Inhibitor_Dose_CherryPick_Activity.; type: functional, Mycobacterium tuberculosis H37Rv
T3 sequence (P9WQ59 whole entry): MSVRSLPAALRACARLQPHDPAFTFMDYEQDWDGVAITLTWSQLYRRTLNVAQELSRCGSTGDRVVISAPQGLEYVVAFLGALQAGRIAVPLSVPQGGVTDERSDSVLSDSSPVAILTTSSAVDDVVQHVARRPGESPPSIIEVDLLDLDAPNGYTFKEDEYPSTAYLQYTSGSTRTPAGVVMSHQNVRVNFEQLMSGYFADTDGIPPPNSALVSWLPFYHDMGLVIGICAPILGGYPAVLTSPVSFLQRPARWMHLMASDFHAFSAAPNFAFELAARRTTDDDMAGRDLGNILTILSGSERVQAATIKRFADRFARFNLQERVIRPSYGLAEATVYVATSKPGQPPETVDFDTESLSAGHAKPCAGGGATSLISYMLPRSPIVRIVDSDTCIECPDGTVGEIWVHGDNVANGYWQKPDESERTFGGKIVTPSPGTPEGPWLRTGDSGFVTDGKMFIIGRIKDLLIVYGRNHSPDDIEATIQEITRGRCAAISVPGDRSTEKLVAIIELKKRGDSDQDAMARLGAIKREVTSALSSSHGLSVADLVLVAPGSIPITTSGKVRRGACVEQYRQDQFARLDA

Chain of Ephrin type-A receptor 4 (Q03137 whole entry): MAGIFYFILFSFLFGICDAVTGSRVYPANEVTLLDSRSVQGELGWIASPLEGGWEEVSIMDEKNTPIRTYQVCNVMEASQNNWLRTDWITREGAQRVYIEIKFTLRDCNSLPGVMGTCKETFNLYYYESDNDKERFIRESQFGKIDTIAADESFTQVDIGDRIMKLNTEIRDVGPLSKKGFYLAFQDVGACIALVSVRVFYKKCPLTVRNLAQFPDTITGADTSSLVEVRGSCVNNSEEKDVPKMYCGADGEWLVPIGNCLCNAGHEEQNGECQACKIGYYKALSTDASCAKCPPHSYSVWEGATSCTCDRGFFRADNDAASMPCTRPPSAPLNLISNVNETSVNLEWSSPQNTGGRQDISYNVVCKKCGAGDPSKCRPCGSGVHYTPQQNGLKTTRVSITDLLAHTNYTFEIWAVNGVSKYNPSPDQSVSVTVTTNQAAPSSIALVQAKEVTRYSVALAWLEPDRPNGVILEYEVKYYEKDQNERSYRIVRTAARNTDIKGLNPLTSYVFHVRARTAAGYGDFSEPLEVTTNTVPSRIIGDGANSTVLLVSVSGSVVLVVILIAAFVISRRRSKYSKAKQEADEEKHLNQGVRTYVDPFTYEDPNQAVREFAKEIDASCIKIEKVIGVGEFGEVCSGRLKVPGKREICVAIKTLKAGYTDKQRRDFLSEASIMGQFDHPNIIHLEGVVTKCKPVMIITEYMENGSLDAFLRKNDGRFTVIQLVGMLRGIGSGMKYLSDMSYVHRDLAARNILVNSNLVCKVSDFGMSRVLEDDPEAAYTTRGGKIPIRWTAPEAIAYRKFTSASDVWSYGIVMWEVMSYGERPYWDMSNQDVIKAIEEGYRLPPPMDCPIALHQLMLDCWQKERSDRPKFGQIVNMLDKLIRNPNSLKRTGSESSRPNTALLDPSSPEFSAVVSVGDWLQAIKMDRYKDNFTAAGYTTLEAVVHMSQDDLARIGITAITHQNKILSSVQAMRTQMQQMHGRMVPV

With `CCN(CC)C(=O)CSc1nc2cc(OC)c(OC)cc2c(=O)n1Cc1ccc(Cl)cc1` the IC50 [1] was > 100 µM (not active).
For `Nc1nc(-c2ccccc2)nn1C(=O)Cc1ccccc1`, the IC50 [2] was 1.51 µM (active).
In the case of `Cc1ccc(SCC(=O)Nc2ccc(N3CCN(C)CC3)c(F)c2)c(C)c1`, the IC50 [3] is reported as 5.55 µM (active), the IC50 [4] is reported as > 29.9 µM (inactive) and the EC50 [5] is reported as > 29.9 µM (inactive). The EC50 [6] was 3.5 µM (active).
For `O=C(Nc1cccnc1)c1ccc(COc2cc(Cl)ccc2Cl)o1`, the IC50 [7] was 12.8 µM (inactive) and the IC50 [8] was 23.5 µM (inactive).
For `O=S(=O)(NCC(Nc1ccccc1)c1ccccc1)c1ccc(Cl)cc1` (configuration not stated), the AC50 [9] was 19 µM (active), the AC50 [10] was 2.15 µM (active) and the AC50 [11] was 34.8 µM (active). For the same compound, the AC50 [12] was 2.48 µM (active) and the AC50 [13] was 10.4 µM (active).
For `CCOC(=O)C(NCCc1ccccc1F)(NC(C)=O)C(F)(F)F` (configuration not stated), the IC50 [3] was > 29.9 µM (inactive), the IC50 [4] was > 29.9 µM (inactive) and the EC50 [5] was > 29.9 µM (inactive). The EC50 [6] was 1.84 µM (active).
For `C[C@H](NC(=O)c1ccccc1)C(=O)OCC(=O)c1c[nH]c2ccccc12`, the IC50 [3] was 7.13 µM (active), the IC50 [4] was > 29.9 µM (inactive) and the EC50 [5] was > 29.9 µM (inactive). For the same compound, the EC50 [6] was 3.28 µM (active).
For `Cc1cc(C)c(CN2CCN(C(=O)Cn3ccc(NC(=O)OCc4ccccc4)nc3=O)CC2)c(C)c1`, the AC50 [9] was 26.8 µM (active), the AC50 [11] was 4.37 µM (active) and the AC50 [13] was > 70 µM (inactive).
In the case of `Cc1csc(NC(=O)CSc2nnc(NC(=O)NC(C)(C)C)s2)n1`, the AC50 [14] is reported as > 100 µM (inactive).
In the case of `CCC1=NN(C(=O)c2ccccc2Br)C(O)(c2ccc(Br)cc2)C1` (configuration not stated), the AC50 [14] is reported as > 100 µM (inactive).
For `Oc1nc2ccc(Cl)cc2c(-c2ccccc2)c1N1CCOCC1`, the IC50 [2] was > 50 µM (not active).
